Test results from US11179412B2, “Methods of treating conditions involving elevated inflammatory response” (University of Pittsburgh—Of the Commonwealth System of …, priority 2017, dated 2021).

What was measured:
[1] = test system: STING signaling (TBK1, IRF3, p65, ALK, EGFR, AKT phosphorylation) in iBMDMs; assay: Western blot of STING pathway protein phosphorylation, iBMDMs; format: cell-based, mouse; details: 16 hours, 10 μM
Procedure: (§1) For immunoblotting, cells were lysed in Cell Lysis Buffer (#9803, Cell Signaling Technology) with protease inhibitor cocktail (Promega), phosphatase inhibitor cocktail (Sigma), and 1 mM Na3VO4 (70). Cleared lysates were resolved by SDS-PAGE (#3450124, Bio-Rad) and then transferred onto PVDF membranes (#1704273, Bio-Rad). The membranes were blocked with Tris-buffered saline Tween 20 (TBST) containing 5% skim milk for 1 h at room temperature and then incubated with the indicated primary antibodies (1:1000-1:5000) overnight at 4° C. After being washed with TBST, the membranes were incubated with an HRP-linked anti-mouse IgG secondary antibody (#7076, Cell Signaling Technology) or HRP-linked anti-rabbit IgG secondary antibody (#7074, Cell Signaling Technology) for 1 h at room temperature. The membranes were washed three times in TBST and then visualized and analyzed with a ChemiDoc Touch Imaging System (#1708370, Bio-Rad). The intensities of bands were analyzed with Image Lab software.

[2] = test system: STING signaling (TBK1, IRF3, p65, ALK, EGFR, AKT phosphorylation) in RAW264.7 cells; assay: Western blot of STING pathway protein phosphorylation, RAW264.7; format: cell-based, mouse; details: 16 hours, 10 μM
Procedure: as §1

[3] = test system: STING signaling (TBK1, IRF3, p65, ALK, EGFR, AKT phosphorylation) in THP1 cells; assay: Western blot of STING pathway protein phosphorylation, THP1; format: cell-based, human; details: 16 hours, 10 μM
Procedure: as §1

[4] = target: T1, interaction between ALK and EGFR (Mus musculus, UniProt P97793+Q01279); assay: IP analysis of the interaction between ALK and EGFR, iBMDMs; format: cell-based; details: 3′3′-cGAMP or c-di-AMP 10 μg/ml, 16 hours, 10 μM
T1 construct: endogenous in cells; host or cells: iBMDMs
Procedure: Concentrations of proteins in the supernatant were determined by bicinchoninic acid assay. […] Following incubation, agarose/sepharose beads were washed extensively with PBS and proteins were eluted by boiling in 2× sodium dodecyl sulfate (SDS) sample buffer before SDS-PAGE electrophoresis.

[5] = test system: STING activation (IFNβ release) in iBMDMs; assay: IFNβ release ELISA after STING ligand (or LPS) stimulation, iBMDMs; format: cell-based, mouse; details: iBMDMs; 3′3′-cGAMP 10 μg/ml, 16 hours; compound 10 μM
Summary of the method: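 iBMDMs were stimulated with a STING ligand such as 3′3′-cGAMP, or with LPS. Secreted IFNβ in culture medium was measured by commercial mouse or human IFNβ ELISA.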

[6] = target: T2, interaction between ALK and EGFR (Homo sapiens, UniProt P00533+Q9UM73); assay: IP analysis of the interaction between ALK and EGFR, THP1; format: cell-based; details: 3′3′-cGAMP or c-di-AMP 10 μg/ml, 16 hours, 10 μM
T2 construct: endogenous in cells; host or cells: THP1 cells
Procedure: For immunoprecipitation, cells were lysed at 4° C. in ice-cold modified radioimmunoprecipitation lysis buffer (#9806, Cell Signaling Technology) and cell lysates were cleared by centrifugation (12,000 g, 10 min). Concentrations of proteins in the supernatant were determined by bicinchoninic acid assay. Prior to immunoprecipitation, samples containing equal amounts of proteins were pre-cleared with Protein A/G agarose/sepharose beads (#20423, Thermo Fisher Scientific Inc.) (4° C., 3 h) and subsequently incubated with various irrelevant IgG or anti-ALK (#ab190934, Abcam) or anti-EGFR antibodies (#2232S, Cell Signaling Technology) in the presence of Protein A/G agarose/sepharose beads overnight at 4° C. with gentle shaking. Following incubation, agarose/sepharose beads were washed extensively with PBS and proteins were eluted by boiling in 2× sodium dodecyl sulfate (SDS) sample buffer before SDS-PAGE electrophoresis.

[7] = 3′3′-cGAMP or c-di-AMP 10 μg/ml

T2 sequence (Q9UM73 19-1620): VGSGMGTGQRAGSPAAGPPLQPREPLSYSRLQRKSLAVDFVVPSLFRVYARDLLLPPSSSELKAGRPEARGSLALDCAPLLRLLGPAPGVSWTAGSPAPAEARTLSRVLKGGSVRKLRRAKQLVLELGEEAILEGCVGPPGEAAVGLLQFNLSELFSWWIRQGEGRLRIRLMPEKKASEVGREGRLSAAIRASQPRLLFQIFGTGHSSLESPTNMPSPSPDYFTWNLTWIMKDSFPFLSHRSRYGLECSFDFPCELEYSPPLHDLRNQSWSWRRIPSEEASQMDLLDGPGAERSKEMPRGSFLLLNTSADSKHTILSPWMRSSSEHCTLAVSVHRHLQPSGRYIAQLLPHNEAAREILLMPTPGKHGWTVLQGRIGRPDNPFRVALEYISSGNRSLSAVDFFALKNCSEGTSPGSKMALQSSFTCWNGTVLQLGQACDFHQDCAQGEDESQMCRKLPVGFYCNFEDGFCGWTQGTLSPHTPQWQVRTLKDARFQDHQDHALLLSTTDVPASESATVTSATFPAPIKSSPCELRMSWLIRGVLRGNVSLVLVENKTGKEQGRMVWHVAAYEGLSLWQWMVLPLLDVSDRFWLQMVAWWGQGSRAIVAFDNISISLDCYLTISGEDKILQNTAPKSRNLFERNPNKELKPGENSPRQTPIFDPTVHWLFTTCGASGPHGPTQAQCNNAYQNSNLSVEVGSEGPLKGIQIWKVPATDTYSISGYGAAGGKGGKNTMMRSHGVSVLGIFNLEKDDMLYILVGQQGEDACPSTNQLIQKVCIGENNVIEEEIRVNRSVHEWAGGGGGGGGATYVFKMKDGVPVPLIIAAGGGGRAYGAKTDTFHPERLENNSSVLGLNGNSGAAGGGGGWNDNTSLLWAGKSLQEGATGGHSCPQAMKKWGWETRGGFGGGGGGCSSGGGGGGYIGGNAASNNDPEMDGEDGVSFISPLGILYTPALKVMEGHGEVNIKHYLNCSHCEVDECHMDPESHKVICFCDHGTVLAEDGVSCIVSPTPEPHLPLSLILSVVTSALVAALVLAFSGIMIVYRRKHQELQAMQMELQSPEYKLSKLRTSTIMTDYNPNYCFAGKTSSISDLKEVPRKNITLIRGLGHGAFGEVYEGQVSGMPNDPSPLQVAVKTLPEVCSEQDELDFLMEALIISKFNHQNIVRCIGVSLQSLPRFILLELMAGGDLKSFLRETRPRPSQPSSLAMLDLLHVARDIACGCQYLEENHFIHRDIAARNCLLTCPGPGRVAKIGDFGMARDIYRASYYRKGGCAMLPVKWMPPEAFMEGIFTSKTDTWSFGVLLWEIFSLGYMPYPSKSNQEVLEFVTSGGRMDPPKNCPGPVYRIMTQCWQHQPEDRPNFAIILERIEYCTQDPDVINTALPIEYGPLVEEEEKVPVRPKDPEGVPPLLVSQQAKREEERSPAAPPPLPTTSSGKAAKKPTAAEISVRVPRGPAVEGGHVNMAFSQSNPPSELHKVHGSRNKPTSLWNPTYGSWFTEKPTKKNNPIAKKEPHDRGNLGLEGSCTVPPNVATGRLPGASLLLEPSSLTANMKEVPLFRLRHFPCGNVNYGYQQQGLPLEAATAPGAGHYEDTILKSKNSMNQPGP
T2 sequence (P00533 25-1210): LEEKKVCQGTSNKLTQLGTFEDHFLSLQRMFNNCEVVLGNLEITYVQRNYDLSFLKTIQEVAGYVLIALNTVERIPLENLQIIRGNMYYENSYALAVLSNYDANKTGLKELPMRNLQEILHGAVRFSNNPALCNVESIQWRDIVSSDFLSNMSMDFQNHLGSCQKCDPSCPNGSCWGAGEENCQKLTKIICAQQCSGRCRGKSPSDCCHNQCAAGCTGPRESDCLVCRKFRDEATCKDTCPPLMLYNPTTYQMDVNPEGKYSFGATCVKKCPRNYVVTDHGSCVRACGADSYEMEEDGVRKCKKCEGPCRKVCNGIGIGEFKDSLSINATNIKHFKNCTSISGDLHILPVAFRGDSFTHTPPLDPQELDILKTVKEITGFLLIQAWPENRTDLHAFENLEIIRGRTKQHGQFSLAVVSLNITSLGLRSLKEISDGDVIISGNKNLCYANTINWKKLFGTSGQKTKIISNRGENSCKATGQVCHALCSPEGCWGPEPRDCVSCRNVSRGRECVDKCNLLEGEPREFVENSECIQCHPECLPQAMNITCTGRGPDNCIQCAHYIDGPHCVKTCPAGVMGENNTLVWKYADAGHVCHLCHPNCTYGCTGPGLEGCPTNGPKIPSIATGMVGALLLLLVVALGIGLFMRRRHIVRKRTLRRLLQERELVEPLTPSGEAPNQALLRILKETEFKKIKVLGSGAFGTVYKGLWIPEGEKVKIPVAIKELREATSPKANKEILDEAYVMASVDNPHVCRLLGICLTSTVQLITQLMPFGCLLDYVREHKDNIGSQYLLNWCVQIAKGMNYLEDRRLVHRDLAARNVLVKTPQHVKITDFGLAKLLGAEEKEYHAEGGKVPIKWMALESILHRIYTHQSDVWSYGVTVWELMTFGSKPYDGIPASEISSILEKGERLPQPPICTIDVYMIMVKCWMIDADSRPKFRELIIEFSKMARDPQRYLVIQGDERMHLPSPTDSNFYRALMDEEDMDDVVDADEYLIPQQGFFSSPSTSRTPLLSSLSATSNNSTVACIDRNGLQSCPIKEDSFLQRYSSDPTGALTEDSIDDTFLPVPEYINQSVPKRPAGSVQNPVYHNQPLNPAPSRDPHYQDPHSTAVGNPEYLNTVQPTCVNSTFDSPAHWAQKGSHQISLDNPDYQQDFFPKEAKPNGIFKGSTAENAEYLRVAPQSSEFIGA

Q: Which results are given for `C#Cc1cccc(Nc2ncnc3cc(OCCOC)c(OCCO)cc23)c1` [OSI-420]?
A: STING ligand-induced phosphorylation of TBK1, IRF3, and p65 [1, 7]: diminished; 3′3′-cGAMP- or c-di-AMP-induced phosphorylation of ALK, EGFR, and AKT ([1]; ligand 10 μg/ml): attenuated; STING ligand-induced phosphorylation of TBK1, IRF3, and p65 [2, 7]: diminished; 3′3′-cGAMP- or c-di-AMP-induced phosphorylation of ALK, EGFR, and AKT ([2]; ligand 10 μg/ml): attenuated; STING ligand-induced phosphorylation of TBK1, IRF3, and p65 [3, 7]: diminished; 3′3′-cGAMP- or c-di-AMP-induced phosphorylation of ALK, EGFR, and AKT ([3]; ligand 10 μg/ml): attenuated; interaction between ALK and EGFR [4]: reduced; fold increase in IFN-β release [5]: 0.14 fold; interaction between ALK and EGFR [6]: reduced
